The values that follow come from patent US4228156A, “Synthetic peptides having pituitary growth hormone releasing activity” (Beckman Instruments, Inc., priority 1979, dated 1980).

This experiment has as its system pituitaries removed from 20 day old female rats. Nature of the experiment: In vitro growth hormone release study (incubated rat pituitaries, GH radioimmunoassay of the medium). Type of experiment: cell-based, rats (CD-1 strain). The note with it: two pituitaries in 1 ml lactated Ringer's, 36° C., ± SEM. On the procedure: Female rats of the CD-1 strain were housed in a constant temperature room at 24° C. with 14 hours light and 10 hours darkness. The rats were fed Purina brand rat chow ab libitum. All studies were started between 0800 and 1000 hours. Pituitaries were removed from 20 day old female rats. Two pituitaries were incubated at 36° C. in 1 ml of lactated Ringer's solution in 10 ml polytetrafluoroethylene beakers in a Dubnoff Shaker (90 cycles/min.). The pituitaries were incubated a total of 4 hours (P1, P2, I3, and I4). After two successive one hour preincubation periods (P1, P2), the peptide was added to the incubation medium hourly for 2 hours (I3, I4). This in vitro study was performed in triplicate and a standard radioimmunoassay of growth hormone present in the incubation medium was performed in duplicate. The hormonal activity was calculated as the difference (Δ) of growth hormone (GH) levels between I3, I4 and P2, i.e., (I3 -P2) and (I4 -P2). P values were calculated by Students' t test using six growth hormone values for each value recorded. The growth hormone radioimmunoassay reagents were distributed by the National Institute of Arthritis and Metabolite Disease Division (NIAMDD) program. The growth hormone values were calculated in terms of nanograms (ng) of a rat standard with a growth hormone potency of 0.61 units/mg.

Non-standard residues stand in square brackets, D forms with d. Residues, ends and D or L forms follow the SMILES beside them.

On to `NC(=O)[C@H](Cc1ccccc1)NC(=O)[C@@H](Cc1c[nH]c2ccccc12)NC(=O)[C@H](N)Cc1c[nH]c2ccccc12` [H2 N--D-Trp--D-Trp--Phe--CONH2, H2 N-D-Trp-D-Trp-Phe-CONH2] (H-[dW]-[dW]-Phe-NH2), for which the “In vitro growth hormone release (ΔGH, I3-P2 and I4-P2)” value is 592 ± 237 ng.increment.GH/ml incubation (0.3μg peptide, P Value ~0.02); 943 ± 137 ng.increment.GH/ml incubation (1μg peptide, P Value <0.001); 1263 ± 293 ng.increment.GH/ml incubation (10μg peptide, P Value <0.001); 635 ± 165 ng.increment.GH/ml incubation (100μg peptide, P Value <0.01).
